According to patent US20250099478A1, “PLASMA KALLIKREIN INHIBITORS” (Merck Sharp & Dohme LLC, priority 2022, published 2025):

Columns and labels:
Human plasma kallikrein = molecular target: T1, Human plasma kallikrein (Homo sapiens, UniProt P03952); assay: Plasma Kallikrein Assay; assay type: biochemical; conditions: purified Human plasma kallikrein 0.5 nM, substrate Acetyl-K-P-R-AFC; read-out: PKal IC50
T1 construct: yields a heavy chain (371 amino acids) and a light chain (248 amino acids); purchased Enzyme Research Laboratories
T1 sequence (P03952 391-638 limits assumed): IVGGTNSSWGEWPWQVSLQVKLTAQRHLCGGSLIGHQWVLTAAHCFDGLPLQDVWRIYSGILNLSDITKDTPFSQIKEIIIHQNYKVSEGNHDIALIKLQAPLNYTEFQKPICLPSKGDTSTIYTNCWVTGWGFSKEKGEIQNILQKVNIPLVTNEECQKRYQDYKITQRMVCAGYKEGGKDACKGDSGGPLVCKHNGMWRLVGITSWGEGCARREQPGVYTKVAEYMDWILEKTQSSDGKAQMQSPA
T1 sequence (P03952 20-390 partner limits assumed): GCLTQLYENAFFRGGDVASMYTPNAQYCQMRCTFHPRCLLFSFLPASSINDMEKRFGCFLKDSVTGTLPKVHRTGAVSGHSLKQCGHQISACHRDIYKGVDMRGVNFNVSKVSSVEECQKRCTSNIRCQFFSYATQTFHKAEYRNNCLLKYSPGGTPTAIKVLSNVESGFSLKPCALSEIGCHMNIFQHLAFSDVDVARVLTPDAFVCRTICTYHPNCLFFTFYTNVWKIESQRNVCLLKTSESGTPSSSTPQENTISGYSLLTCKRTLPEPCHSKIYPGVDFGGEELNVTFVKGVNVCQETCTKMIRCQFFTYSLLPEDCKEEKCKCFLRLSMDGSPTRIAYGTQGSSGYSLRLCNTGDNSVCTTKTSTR
Outline: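 Purified human plasma kallikrein (0.5 nM) hydrolysing fluorogenic Acetyl-K-P-R-AFC ([…]) in 50 mM HEPES pH 7.4, 150 mM NaCl, 5 mM CaCl2, 0.1% PEG 8000, at rt or 37 °C after enzyme–inhibitor equilibration. IC50 from four-parameter logistic fit; Ki via Cheng–Prusoff.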

human factor XIa = molecular target: T2, human factor XIa (Homo sapiens, UniProt P03951); assay: Factor XIa Assay; assay type: biochemical; conditions: human factor XIa 0.04 nM, substrate GPR-AFC, 25° C.
T2 construct: with human (0.04 nM) factor XIa
T2 sequence (P03951 388-625 limits assumed): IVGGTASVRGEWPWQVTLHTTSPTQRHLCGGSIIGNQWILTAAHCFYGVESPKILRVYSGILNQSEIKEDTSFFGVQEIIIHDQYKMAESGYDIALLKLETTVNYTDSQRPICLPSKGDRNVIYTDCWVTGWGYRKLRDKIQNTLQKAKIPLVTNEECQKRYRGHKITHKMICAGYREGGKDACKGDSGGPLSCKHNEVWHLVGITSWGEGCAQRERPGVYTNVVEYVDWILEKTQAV
T2 sequence (P03951 19-387 partner limits assumed): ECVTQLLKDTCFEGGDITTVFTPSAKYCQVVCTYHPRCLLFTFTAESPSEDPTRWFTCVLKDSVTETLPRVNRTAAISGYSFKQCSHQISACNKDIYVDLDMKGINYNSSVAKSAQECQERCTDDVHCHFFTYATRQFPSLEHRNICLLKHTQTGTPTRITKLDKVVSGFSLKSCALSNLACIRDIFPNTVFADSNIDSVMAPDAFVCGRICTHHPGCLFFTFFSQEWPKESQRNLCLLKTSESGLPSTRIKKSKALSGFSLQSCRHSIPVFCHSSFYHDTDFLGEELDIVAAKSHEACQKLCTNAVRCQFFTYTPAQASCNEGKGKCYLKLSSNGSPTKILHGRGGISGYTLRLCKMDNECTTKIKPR
Experimental: The effectiveness of a compound of the present invention as an inhibitor of Coagulation factor XIa can be determined using a relevant purified serine protease, and an appropriate synthetic substrate. The rate of hydrolysis of the chromogenic or fluorogenic substrate by the relevant serine protease was measured both in the absence and presence of compounds of the present invention. Assays were conducted at rt or at 37° C. […] A decrease in the rate of fluorescence change in the presence of inhibitor is indicative of enzyme inhibition. Such methods are known to one skilled in the art. The results of this assay are expressed as the half-maximal inhibitory concentrations (IC50), or the inhibitory constant, Ki.
Compounds were pre-incubated for 30 min at 25° C. with human (0.04 nM) factor XIa in 50 mM HEPES buffer with 150 mM sodium chloride, 5 mM calcium chloride, 0.1% PEG 8000, pH 7.4. factor XIa enzymatic activity was determined by addition of the substrate glycine-proline-arginine-7-amido-4-trifluoromethylcoumarin (GPR-AFC) and measurement of the fluorescence at 400/505 nm after a 60 min incubation at 25° C. The % inhibition for each data point was calculated from the data and analyzed using the log (inhibitor) vs. response four parameters equation to determine the half-maximal inhibitory concentrations (IC50). The IC50 were converted to equilibrium inhibitory constants (Ki) using the Cheng-Prusoff equation.

Row | Compound | IC50 (Human plasma kallikrein) [nM] | IC50 (human factor XIa) [nM]
1 | O=C1Nc2ccc(Cl)c(F)c2[C@@]2(CCCN(C(=O)c3cnn([C@](CO)(CC4CC4)c4ccc(F)cc4)c3)C2)O1 [Example 34, (R)-6-Chloro-1′-(1-((R)-1-cyclopropyl-2-(4-fluorophenyl)-3-hydroxypropan-2-yl)-1H-pyrazole-4-carbonyl)-5-fluorospiro[benzo[d][1,3]oxazine-4,3′-piperidin]-2(1H)-one] | 13.1 | 270
2 | O=C1Nc2ccc(Cl)c(F)c2[C@@]2(CCCN(C(=O)c3nc(Cc4ccccc4)c[nH]3)C2)O1 [Example 65, (R)-1′-(4-Benzyl-1H-imidazole-2-carbonyl)-6-chloro-5-fluorospiro[benzo[d][1,3]oxazine-4,3′-piperidin]-2(1H)-one] | 19.3 | 1770
3 | O=C1Nc2ccc(Cl)c(F)c2[C@@]2(CCCN(C(=O)c3cnc([C@@H](O)c4ccc(F)cc4)[nH]3)C2)O1 [Example 77] | 56.6 | 8130
4 | O=C1Nc2ccc(Cl)c(F)c2[C@@]2(CCCN(C(=O)c3nnc(C4(c5ccc(F)cc5)CCC4)[nH]3)C2)O1 [Example 88, (R)-6-Chloro-5-fluoro-1′-(5-(1-(4-fluorophenyl)cyclobutyl)-4H-1,2,4-triazole-3-carbonyl)spiro[benzo[d][1,3]oxazine-4,3′-piperidin]-2(1H)-one] | 13.7 | 4440
5 | CC1(C)CN(C(=O)c2nnc(C(C)(C)c3ccccc3)[nH]2)C[C@]2(C1)OC(=O)Nc1ccc(Cl)c(F)c12 [Example 95, (R)-6-Chloro-5-fluoro-5′,5′-dimethyl-1′-(5-(2-phenylpropan-2-yl)-4H-1,2,4-triazole-3-carbonyl)spiro[benzo[d][1,3]oxazine-4,3′-piperidin]-2(1H)-one] | 21.4 | 3010
6 | CC[C@@H](c1cc(C)c2nc[nH]c2c1)c1n[nH]c(C(=O)N2CCC[C@@]3(C2)OC(=O)Nc2ccc(Cl)c(F)c23)n1 [Example 109, (R)-6-Chloro-5-fluoro-1′-(3-((S)-1-(4-methyl-1H-benzo[d]imidazol-6-yl)propyl)-TH-1,2,4-triazole-5-carbonyl)spiro[benzo[d][1,3]oxazine-4,3′-piperidin]-2(1H)-one] | 1.3 | 646
7 | CC[C@H](c1cc(C)c2nc[nH]c2c1)c1n[nH]c(C(=O)N2CCC[C@@]3(C2)OC(=O)Nc2ccc(Cl)c(F)c23)n1 [Example 110, (R)-6-Chloro-5-fluoro-1′-(3-((R)-1-(4-methyl-1H-benzo[d]imidazol-6-yl)propyl)-1H-1,2,4-triazole-5-carbonyl)spiro[benzo[d][1.3]oxazine-4,3′-piperidin]-2(1H)-one] | 1 | 1220
8 | Cc1cc(Cc2nnc(C(=O)N3CCC[C@@]4(C3)OC(=O)Nc3ccc(Cl)c(F)c34)[nH]2)cc2[nH]ncc12 [Example 124, (R)-6-Chloro-5-fluoro-1′-(5-((4-methyl-1H-indazol-6-yl)methyl)-4H-1,2,4-triazole-3-carbonyl)spiro[benzo[d][1,3]oxazine-4,3′-piperidin]-2(1H)-one] | 13.5 | 7760

The remaining compounds from weak to strong by IC50 (Human plasma kallikrein), led by results:

Row | IC50 (Human plasma kallikrein) [nM] | IC50 (human factor XIa) [nM] | Compound
9 | 29.9 | 3160 | CC(C)(c1ccccc1)c1nnc(C(=O)N2CCC[C@@]3(C2)OC(=O)Nc2ccc(Cl)c(F)c23)[nH]1 [Example 93, (R)-6-Chloro-5-fluoro-1′-(5-(2-phenylpropan-2-yl)-4H-1,2,4-triazole-3-carbonyl)spiro[benzo[d][1,3]oxazine-4,3′-piperidin]-2(1H)-one]
10 | 24.8 | 6890 | O=C1Nc2ccc(Cl)c(F)c2[C@@]2(CCCN(C(=O)c3nnc(Cc4ccccc4)[nH]3)C2)O1 [Example 86, (R)-1′-(5-Benzyl-4H-1,2,4-triazole-3-carbonyl)-6-chloro-5-fluorospiro[benzo[d][1,3]oxazine-4,3′-piperidin]-2(1H)-one]
11 | 16.1 | 4580 | O=C1Nc2ccc(Cl)c(F)c2[C@@]2(CCCN(C(=O)c3cnc(Cc4ccc(F)cc4)[nH]3)C2)O1 [Example 76, (R)-6-Chloro-5-fluoro-1′-(2-(4-fluorobenzyl)-1H-imidazole-5-carbonyl)spiro[benzo[d][1,3]oxazine-4,3′-piperidin]-2(1H)-one]
12 | 14.9 | 7200 | CC1(C)CN(C(=O)c2nnc(Cc3ccccc3)[nH]2)C[C@]2(C1)OC(=O)Nc1ccc(Cl)c(F)c12 [Example 89, (R)-1′-(5-Benzyl-4H-1,2,4-triazole-3-carbonyl)-6-chloro-5-fluoro-5′,5′-dimethylspiro[benzo[d][1,3]oxazine-4,3′-piperidin]-2(1H)-one]
13 | 8.7 | 2300 | CCCCC(O)(c1ccc(F)cc1)c1ncc(C(=O)N2CCC[C@@]3(C2)OC(=O)Nc2ccc(Cl)c(F)c23)[nH]1 (stereo partly drawn) [Example 81, (3′R)-6-Chloro-5-fluoro-1′-(2-(1-(4-fluorophenyl)-1-hydroxypentyl)-1H-imidazole-5-carbonyl)spiro[benzo[d][1.3]oxazine-4,3′-piperidin]-2(1H)-one]
14 | 5.7 | 946 | CCC(c1ccc(F)cc1)c1c[nH]c(C(=O)N2CCC[C@@]3(C2)OC(=O)Nc2ccc(Cl)c(F)c23)n1 (stereo partly drawn) [Example 70, (4R)-6-Chloro-5-fluoro-1′-(4-(1-(4-fluorophenyl)propyl)-1H-imidazole-2-carbonyl)spiro[benzo[d][1,3]oxazine-4,3′-piperidin]-2(1H)-one]
15 | 5.6 | 2490 | O=C1Nc2ccc(Cl)c(F)c2[C@@]2(CCCN(C(=O)c3nnc(C4(c5ccc(F)cc5)CCOCC4)[nH]3)C2)O1 [Example 94, (R)-6-Chloro-5-fluoro-1′-(5-(4-(4-fluorophenyl)tetrahydro-2H-pyran-4-yl)-4H-1,2,4-triazole-3-carbonyl)spiro[benzo[d][1,3]oxazine-4,3′-piperidin]-2(1H)-one]
16 | 5.3 | 1360 | COCC(c1ccccc1)c1n[nH]c(C(=O)N2CCC[C@@]3(C2)OC(=O)Nc2ccc(Cl)c(F)c23)n1 (stereo partly drawn) [Example 130, (4R)-6-Chloro-5-fluoro-1′-(3-(2-methoxy-1-phenylethyl)-1H-1,2,4-triazole-5-carbonyl)spiro[benzo[d][1,3]oxazine-4,3′-piperidin]-2(1H)-one]
